Results from paper PMC12426595 (Cancer Research Communications, 2025).

Columns and labels:
[1] = biological target: T1, BTK-NanoLuc Fusion Vector in HEK293 cells (Homo sapiens, UniProt Q06187); experiment: NanoBRET intracellular binding assay, BTK; settings: read-out: EC50 BTK (NanoBRET), positive control
T1 construct: host or cells: HEK293
Method: Intracellular binding was determined with a NanoBRET assay (Reaction Biology). […] The protein kinase inhibitors dasatinib and […] were used as positive controls.

[2] = In vivo DDI: gilteritinib pharmacokinetics; design: species or system mouse; settings: plasma, po, 30 mg/kg, gilteritinib 30 mg/kg oral
[3] = In vivo DDI: pravastatin pharmacokinetics; settings: male, C57BL/6, mouse, plasma, po, 20 mg/kg, C57BL/6 male, pravastatin 20 mg/kg oral
[4] = system: P-gp; settings: cited from earlier work
[5] = female, C57BL/6, mouse, C57BL/6 female, perpetrator TL-895 3 mg/kg
[6] = female, C57BL/6, mouse, C57BL/6 female, perpetrator vehicle
[7] = female, NSG (NOD/SCID gamma), mouse, NSG female, perpetrator TL-895 3 mg/kg
[8] = female, NSG (NOD/SCID gamma), mouse, NSG female, perpetrator vehicle
[9] = male, C57BL/6, mouse, C57BL/6 male, perpetrator TL-895 3 mg/kg
[10] = male, C57BL/6, mouse, C57BL/6 male, perpetrator vehicle
[11] = male, NSG (NOD/SCID gamma), mouse, NSG male, perpetrator TL-895 3 mg/kg
[12] = male, NSG (NOD/SCID gamma), mouse, NSG male, perpetrator vehicle

T1 sequence (Q06187 whole entry, the tested form may be a part): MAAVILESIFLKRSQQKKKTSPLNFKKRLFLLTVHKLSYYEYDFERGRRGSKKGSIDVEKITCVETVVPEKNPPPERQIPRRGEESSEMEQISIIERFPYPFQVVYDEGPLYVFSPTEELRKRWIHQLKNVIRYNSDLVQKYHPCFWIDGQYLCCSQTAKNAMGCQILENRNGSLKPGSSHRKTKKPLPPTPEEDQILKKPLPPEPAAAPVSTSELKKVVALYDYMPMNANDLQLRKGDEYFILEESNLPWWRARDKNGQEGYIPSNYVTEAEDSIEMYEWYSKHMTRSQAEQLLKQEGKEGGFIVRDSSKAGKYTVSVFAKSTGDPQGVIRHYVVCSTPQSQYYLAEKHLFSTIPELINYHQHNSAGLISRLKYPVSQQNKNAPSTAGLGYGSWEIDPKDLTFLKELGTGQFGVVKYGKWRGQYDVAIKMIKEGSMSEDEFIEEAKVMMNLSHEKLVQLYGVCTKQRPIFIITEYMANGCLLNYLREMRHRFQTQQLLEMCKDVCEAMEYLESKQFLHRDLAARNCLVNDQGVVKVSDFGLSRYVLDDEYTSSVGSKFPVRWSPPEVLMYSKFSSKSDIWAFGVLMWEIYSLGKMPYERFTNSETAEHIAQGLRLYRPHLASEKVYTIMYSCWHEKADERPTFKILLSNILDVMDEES

CNC(=O)c1ccccc1Nc1nc(Nc2ccc(N3CCNCC3)cc2)ncc1Cl [CTx-0294885]
EC50 [1]: 30.1 nM

CCc1nc(C(N)=O)c(Nc2ccc(N3CCC(N4CCN(C)CC4)CC3)c(OC)c2)nc1NC1CCOCC1 [Gilteritinib, gilteritinib]
AUC [2, 5]: 6440 ng·h/mL | Cmax [2, 5]: 688 ± 97 ng/mL | AUC [2, 6]: 6980 ng·h/mL | Cmax [2, 6]: 787 ± 102 ng/mL | AUC [2, 7]: 4830 ng·h/mL | Cmax [2, 7]: 507 ± 28 ng/mL | AUC [2, 8]: 4930 ng·h/mL | Cmax [2, 8]: 593 ± 87 ng/mL | AUC [2, 9]: 5130 ng·h/mL | Cmax [2, 9]: 502 ± 113 ng/mL | AUC [2, 10]: 4960 ng·h/mL | Cmax [2, 10]: 469 ± 51 ng/mL | AUC [2, 11]: 4370 ng·h/mL | Cmax [2, 11]: 421 ± 20 ng/mL | AUC [2, 12]: 4410 ng·h/mL | Cmax [2, 12]: 440 ± 86 ng/mL

CC[C@H](C)C(=O)O[C@H]1C[C@H](O)C=C2C=C[C@H](C)[C@H](CC[C@@H](O)C[C@@H](O)CC(=O)O)[C@H]21 [Pravastatin, pravastatin]
AUC ([3]; perpetrator TL-895 10 mg/kg): 49.8 ± 7.6 ng·h/mL | Cmax ([3]; perpetrator TL-895 10 mg/kg): 182 ± 31 ng/mL | AUC ([3]; perpetrator rifampin 20 mg/kg): 333 ± 64 ng·h/mL | Cmax ([3]; perpetrator rifampin 20 mg/kg): 994 ± 148 ng/mL | AUC ([3]; perpetrator vehicle): 102 ± 42 ng·h/mL | Cmax ([3]; perpetrator vehicle): 406 ± 186 ng/mL

C=CC(=O)N1CCC[C@@H](n2nc(-c3ccc(Oc4ccccc4)cc3)c3c(N)ncnc32)C1 [ibrutinib]
effect of P-gp deficiency on overall exposure [4]: only minimal effects
